# Experimental data as given in ChEMBL document CHEMBL1268975, “Building a MCHR1 homology model provides insight into the receptor-antagonist contacts that are important for the development of new anti-obesity agents” (Bioorg Med Chem, 2010).
# Biological target: Melanin-concentrating hormone receptor 1 (Homo sapiens, UniProt Q99705)
# Experiment: biochemical
# Assay type: cell-based, HEK293
# Description: Displacement of [3H]SNAP-7941 from human MCHR1 expressed in HEK cells
# Sequence of Melanin-concentrating hormone receptor 1 (Q99705 whole entry): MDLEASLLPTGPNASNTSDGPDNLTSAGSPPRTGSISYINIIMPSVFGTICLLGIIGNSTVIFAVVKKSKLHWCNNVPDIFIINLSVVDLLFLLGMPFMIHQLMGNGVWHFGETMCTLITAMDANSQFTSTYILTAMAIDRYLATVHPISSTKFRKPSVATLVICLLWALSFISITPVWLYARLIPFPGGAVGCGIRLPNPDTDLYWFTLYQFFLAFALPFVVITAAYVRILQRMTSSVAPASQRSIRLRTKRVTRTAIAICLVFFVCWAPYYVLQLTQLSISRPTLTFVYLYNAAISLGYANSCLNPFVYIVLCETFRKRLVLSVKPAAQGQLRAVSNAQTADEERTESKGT
row,Ki,SMILES
1,> 1 µM,Cc1ccc(CN2CCC(NC(=O)N(CC(=O)C(C)(C)O)Cc3ccc(-c4ccccc4)cc3)CC2)cc1
2,> 1 µM,COc1ccc(-c2ccc(CN(CC(=O)C(C)(C)O)C(=O)NC3CCN(Cc4ccc(C)cc4)CC3)cc2)cc1
3,> 1 µM,COc1ccccc1-c1ccc(CN(CCC2CCN(Cc3ccc(C)cc3)CC2)C(=O)NC(C)C)cc1

# Biological target: Histamine H3 receptor (Homo sapiens, UniProt Q9Y5N1)
# Experiment: not given
# Sequence of Histamine H3 receptor (Q9Y5N1 whole entry): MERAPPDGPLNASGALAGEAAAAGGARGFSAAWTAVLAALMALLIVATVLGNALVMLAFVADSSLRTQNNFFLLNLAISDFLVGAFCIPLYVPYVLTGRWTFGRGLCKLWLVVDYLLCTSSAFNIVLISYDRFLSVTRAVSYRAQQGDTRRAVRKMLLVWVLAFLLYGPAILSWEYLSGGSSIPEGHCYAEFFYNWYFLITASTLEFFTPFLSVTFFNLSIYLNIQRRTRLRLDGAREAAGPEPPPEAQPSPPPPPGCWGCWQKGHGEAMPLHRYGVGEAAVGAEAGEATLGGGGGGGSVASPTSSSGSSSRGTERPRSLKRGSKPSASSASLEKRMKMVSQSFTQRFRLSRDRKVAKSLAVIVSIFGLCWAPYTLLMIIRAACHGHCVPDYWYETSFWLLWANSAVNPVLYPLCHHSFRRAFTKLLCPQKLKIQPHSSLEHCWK
row,SMILES,Ki
1,CCC(COC(C)=O)(COC(C)=O)NC(=O)N(CCC1CCN(Cc2ccc(C)cc2)CC1)Cc1ccc(-c2cccc(C#N)c2)cc1,1.31 µM
2,CC(=O)OCC(C)(C)NC(=O)N(CCC1CCN(Cc2ccc(C)cc2)CC1)Cc1ccc(-c2ccccc2)cc1,1.13 µM
3,Cc1ccc(CN2CCC(NC(=O)N(CC(=O)C(C)(C)O)Cc3ccc(-c4cccc(C#N)c4)cc3)CC2)cc1,2.8 µM
4,CCC(COC(C)=O)(COC(C)=O)NC(=O)N(CCC1CCN(Cc2ccc(C)cc2)CC1)Cc1ccc(-c2ccc(OC)cc2)cc1,0.779 µM
5,Cc1ccc(CN2CCC(NC(=O)N(CC(=O)C(C)(C)O)Cc3ccc(-c4ccccc4)cc3)CC2)cc1,> 1 µM
6,COc1ccc(-c2ccc(CNC(=O)NC3CCN(Cc4ccc(C)cc4)CC3)cc2)cc1,5.15 µM
7,COc1ccc(-c2ccc(CN(CC(=O)C(C)(C)O)C(=O)NC3CCN(Cc4ccc(C)cc4)CC3)cc2)cc1,0.581 µM
8,CC(=O)OCC(C)(C)NC(=O)N(CCC1CCN(Cc2ccc(C)cc2)CC1)Cc1ccc(-c2ccc(F)cc2)cc1,2.08 µM
9,Cc1ccc(CN2CCC(NC(=O)N(CC(=O)C(C)(C)O)Cc3ccc(-c4ccc(F)cc4)cc3)CC2)cc1,1.42 µM
10,Cc1ccc(CN2CCC(CCN(Cc3ccc(-c4cccc(C#N)c4)cc3)C(=O)NC(C)C)CC2)cc1,0.853 µM
11,CC(=O)OCC(C)(C)NC(=O)N(CCC1CCN(Cc2ccc(C)cc2)CC1)Cc1ccc(-c2cccc(C#N)c2)cc1,1.63 µM
12,Cc1ccc(CN2CCC(NC(=O)NCc3ccc(-c4cccc(C#N)c4)cc3)CC2)cc1,> 1 µM
13,COc1ccc(-c2ccc(CN(CCC3CCN(Cc4ccc(C)cc4)CC3)C(=O)NC(C)C)cc2)cc1,6.51 µM
14,CCC(COC(C)=O)(COC(C)=O)NC(=O)N(CCC1CCN(Cc2ccc(C)cc2)CC1)Cc1ccc(-c2ccc(F)cc2)cc1,0.548 µM
15,COc1ccc(-c2ccc(CN(CCC3CCN(Cc4ccc(C)cc4)CC3)C(=O)NC(C)(C)COC(C)=O)cc2)cc1,1.01 µM
16,Cc1ccc(CN2CCC(NC(=O)NCc3ccc(-c4ccccc4)cc3)CC2)cc1,> 1 µM
17,COc1ccccc1-c1ccc(CNC(=O)NC2CCN(Cc3ccc(C)cc3)CC2)cc1,> 1 µM

# Other lines, results leading:
row,Ki,SMILES
1,8.8 µM,CCC(CO)(CO)NC(=O)N(CCC1CCN(Cc2ccc(C)cc2)CC1)Cc1ccc(-c2cccc(C#N)c2)cc1
2,6.68 µM,COc1ccccc1-c1ccc(CN(CCC2CCN(Cc3ccc(C)cc3)CC2)C(=O)NC(C)(C)CO)cc1
3,9.99 µM,COc1ccccc1-c1ccc(CN(CC(=O)C(C)(C)O)C(=O)NC2CCN(Cc3ccc(C)cc3)CC2)cc1
4,1.16 µM,Cc1ccc(CN2CCC(CCN(Cc3ccc(-c4cccc(C#N)c4)cc3)C(=O)NC(C)(C)CO)CC2)cc1
5,0.899 µM,CCC(CO)(CO)NC(=O)N(CCC1CCN(Cc2ccc(C)cc2)CC1)Cc1ccc(-c2ccc(OC)cc2)cc1
6,> 1 µM,Cc1ccc(CN2CCC(CCN(Cc3ccc(-c4ccc(F)cc4)cc3)C(=O)NC(C)(C)CO)CC2)cc1
7,> 1 µM,COc1ccccc1-c1ccc(CN(CCC2CCN(Cc3ccc(C)cc3)CC2)C(=O)NC(C)C)cc1
8,0.629 µM,CCC(COC(C)=O)(COC(C)=O)NC(=O)N(CCC1CCN(Cc2ccc(C)cc2)CC1)Cc1ccc(-c2ccccc2OC)cc1
9,1.05 µM,COc1ccccc1-c1ccc(CN(CCC2CCN(Cc3ccc(C)cc3)CC2)C(=O)NC(C)(C)COC(C)=O)cc1
10,2.14 µM,CCC(CO)(CO)NC(=O)N(CCC1CCN(Cc2ccc(C)cc2)CC1)Cc1ccc(-c2ccccc2OC)cc1
11,> 1 µM,CCC(CO)(CO)NC(=O)N(CCC1CCN(Cc2ccc(C)cc2)CC1)Cc1ccc(-c2ccc(F)cc2)cc1
12,0.807 µM,CCC(COC(C)=O)(COC(C)=O)NC(=O)N(CCC1CCN(Cc2ccc(C)cc2)CC1)Cc1ccc(-c2ccccc2)cc1
13,> 1 µM,Cc1ccc(CN2CCC(CCN(Cc3ccc(-c4ccccc4)cc3)C(=O)NC(C)C)CC2)cc1
14,9.26 µM,COc1ccc(-c2ccc(CN(CCC3CCN(Cc4ccc(C)cc4)CC3)C(=O)NC(C)(C)CO)cc2)cc1
